Data on one substance can be found in patent publication US20180312542A1, “ENDOSOMAL ESCAPE PEPTIDES” (priority 2015, published 2018).

The test system of assay [1] is BSR.LNL.tdTomato cells. Nature of the assay: Primary screen for cytosolic delivery of Cre recombinase (tdTomato, fluorescence image analysis). Format: cell-based, hamster. To be noted: 250 nM protein, 4 h serum-free media, then 48 h; sortase-conjugated peptide or no peptide. The procedure:
FIG. 2. Primary screen for cytosolic delivery of Cre recombinase in BSR.LNL.tdTomato cells. Initial screen of 20 peptide-(+36 GFP)-Cre conjugated proteins. Cytosolic Cre delivery results in recombination and tdTomato expression. The percentage of tdTomato positive cells was determined by fluorescence image analysis. […] Cells were treated with 250 nM protein for 4 hours in serum-free DMEM. Cells were washed and supplanted with full DMEM and incubated for 48 hours. Error bars represent the standard deviation of three independent biological replicates.
The ability of each peptide-(+36 GFP)-Cre recombinase fusion when added to culture media to effect recombination was assayed in BSR.LNL.tdTomato cells, a hamster kidney cell line derived from BHK-21 (FIG. 8). Because Cre recombinase must enter the cell, escape endosomes, enter the nucleus, and catalyze recombination to generate tdTomato fluorescence, this assay reflects the availability of active, non-endosomal recombinase enzyme that reaches the nucleus. […] See, e.g., Dijkstra at al. Biochimica et Biophysica Acta (BBA)-Molecular Cell Research 1984, 804, 58.
The reporter BSR.LNL.tdTomato cells were incubated with 250 nM of each peptide-(+36 GFP)-Cre protein in serum-free media.
BSR.LNL.tdTomato cells were plated at 10,000 cells per well in black 384-well plates (Aurora Biotechnologies). Cells were treated with Cre fusion proteins diluted in serum-free DMEM 24 hours after plating and incubated for 4 hours at 37° C. Following incubation, the cells were washed three times with PBS+20 U/mL heparin. The cells were incubated a further 48 h in serum-containing media. Cells were fixed in 3% paraformaldehyde and stained with Hoescht 33342 nuclear dye. Images were acquired on an ImageXpress Micro automated microscope (Molecular Devices) using a 4× objective (binning 2, gain 2), with laser- and image-based focusing (offset −130 μm, range ±50 μm, step 25 μm). Images were exposed for 10 ms in the DAPI channel (Hoechst) and 500 ms in the dsRed channel (tdTomato). Image analysis was performed using the cell-scoring module of MetaXpress software (Molecular Devices). All nuclei were detected with a minimum width of 1 pixel, maximum width of 3 pixels, and an intensity of 200 gray levels above background. Positive cells were evaluated for uniform signal in the dsRed channel (minimum width of 5 pixels, maximum width of 30 pixels, intensity >200 gray levels above background, 10 μm minimum stained area). In total, nine images were captured and analyzed per well, and 16 wells were treated with the same fusion protein. The primary screen was completed in biological triplicate.

Assay [2] relates to BSR.LNL.tdTomato cells. As to the kind of experiment: Cre delivery assay of expressed fusion proteins (tdTomato, flow cytometry). In kind it is cell-based, hamster. The method, then: FIGS. 3A-3B. Efficacy and toxicity of recombinant expression fusions of aurein 1.2 (“E”) and citropin 1.3 (“U”). […] The percentage of tdTomato positive cells was determined by flow cytometry. Protein fusions were delivered at 125 nM, 250 nM, 500 nM, and 1 μM. (FIG. 3B) Toxicity of aurein 1.2 and citropin 1.3 as determined by CellTiterGlo (Promega) assay. Protein fusions were delivered at 125 nM, 250 nM, 500 nM, and 1 μM. […] Cells were treated with 250 nM protein for 4 hours in serum-free media. Cells were washed and supplanted with full DMEM and incubated for 48 hours. Error bars represent the standard deviation of three independent biological replicates.
FIGS. 4A-4B. Activity and cytotoxicity of aurein 1.2 variants fused to +36 GFP-Cre. (FIG. 4A) The percentage of tdTomato positive cells was determined by flow cytometry. (FIG. 4B) Toxicity as determined by CellTiterGlo (Promega) assay. […] Cells were treated with 250 nM protein for 4 hours in serum-free DMEM. Cells were washed and supplanted with full DMEM and incubated for 48 hours.
Both aurein 1.2-+36 GFP-Cre and citropin 1.3-+36 GFP-Cre were cloned, expressed, and purified as fusion proteins.
To identify the residues involved in enhancing non-endosomal protein delivery, an alanine scan of the 13 amino acid positions of aurein 1.2 was performed by cloning, expressing, and purifying each alanine mutant of aurein 1.2-+36 GFP-Cre. The resulting fusion proteins were assayed in BSR.LNL.tdTomato reporter cells as described above (Table 2). […] In total, 19 mutants of aurein 1.2 were generated and tested using the Cre recombination assay.
Uptake and delivery assays for Cre fusion proteins were performed as previously described. Briefly, proteins were diluted in serum-free DMEM and incubated on the cells in 48-well plates for 4 hours at 37° C. Following incubation, the cells were washed three times with PBS+20 U/mL heparin. The cells were incubated a further 48 hours in serum-containing media prior to trypsinization and analysis by flow cytometry. All flow cytometry were carried out on a BD Fortessa flow cytometer (Becton-Dickinson) using 530/30 nm and 610/20 nm filter sets. Toxicity for aurein 1.2 and citropin 1.3 validation assays was determined using CellTiterGlo assay (Promega) in 96-well plates following manufacturer protocol. Toxicity for alanine scan mutational analysis was determined with LIVE/DEAD fixable far-red dead cell stain (Life Technologies) with 635 nm laser and 670/30 nm filter.

As to “aurein 1.2-+36 GFP-Cre: fusion protein of aurein 1.2, +36 GFP and Cre recombinase, SEQ ID NO: 77”, the “cells expressing tdTomato (recombined cells)” value in the assay on BSR.LNL.tdTomato cells [1] worked out at 40%. In addition, the “recombination signal above that of +36 GFP-Cre” value in the assay with BSR.LNL.tdTomato cells [2] (250 nM expressed fusion protein) is on record as 10.4 fold. The “recombination levels higher than that of +36 GFP-Cre alone” value in the assay on BSR.LNL.tdTomato cells [2] (1 μM expressed fusion protein) turned out to be 3.8 fold.
